According to patent publication US9289461B2, “Reducing the risk of autoimmune disease” (Mead Johnson Nutrition (Asia Pacific) Pte. Ltd., priority 2013, dated 2016):

Test system: STC-1 (intestinal endocrine cell line)
Test: CCK release from STC-1 intestinal endocrine cell line
Assay type: cell-based
Details: compared with a partial hydrolysate (Gentlease) or free amino acids

| Substance | CCK release from STC-1 cells |
| --- | --- |
| ALPMHIR [specific peptide from a casein hydrolysate of the present disclosure] | may stimulate CCK release |
| DISLLDAQSAPLR [specific peptide from a casein hydrolysate of the present disclosure] | may stimulate CCK release |
| GPVRGPFP [specific peptide from a casein hydrolysate of the present disclosure] | may stimulate CCK release |
